Experimental data from patent publication EP0888340B1, “4-(BENZO-1,3-DIOXOLYL)-PYRROLIDINE-3-CARBOXYLIC ACID DERIVATIVES AS ENDOTHELIN ANTAGONISTS” (Abbott Laboratories, priority 1996, dated 1997).
Where a name gives a salt, the structure may show the parent alone.

Target: T1, ETB Receptor (Sus scrofa, UniProt P35463)
T1 construct: Porcine cerebellum was homogenized in 25 volumes (w/v) of 10 mM Hepes (pH 7.4); from tissue; host or cells: porcine cerebellum membranes
T1 sequence (P35463 27-443): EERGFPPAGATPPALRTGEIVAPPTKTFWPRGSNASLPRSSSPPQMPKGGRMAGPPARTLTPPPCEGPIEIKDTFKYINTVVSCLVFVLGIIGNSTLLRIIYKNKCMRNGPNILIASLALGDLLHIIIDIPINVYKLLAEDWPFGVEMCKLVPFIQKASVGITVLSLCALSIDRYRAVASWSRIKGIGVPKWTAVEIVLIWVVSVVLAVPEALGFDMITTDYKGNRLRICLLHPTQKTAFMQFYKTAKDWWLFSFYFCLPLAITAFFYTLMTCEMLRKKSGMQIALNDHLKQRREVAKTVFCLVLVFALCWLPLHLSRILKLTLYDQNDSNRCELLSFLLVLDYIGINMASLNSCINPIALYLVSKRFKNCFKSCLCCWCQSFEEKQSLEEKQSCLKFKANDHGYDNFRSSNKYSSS
Assay: ETB receptor binding assay: [125I]ET-3 binding to membranes
Settings: test compound 1 µM; displacement of 0.1 nM [125I]ET-3; Porcine cerebellum membranes; 4 hours at 25 °C
Method: Preparation of membranes from Porcine cerebellum:
Porcine cerebellum was homogenized in 25 volumes (w/v) of 10 mM Hepes (pH 7.4) containing 0.25 M sucrose and protease inhibitors (3 mM EDTA, 0.1 mM PMSF, and 5 µg/ml Pepstatin A) by 3-10 sec polytron at 13,500 rpm with 10 sec intervals. The mixture was centrifuged at 1000xg for 10 min. The supernatant was collected and centrifuged at 30,000xg for 30 min. The precipitate was resuspended in Buffer A (20 mM Tris, 100 mM NaCl, 10 mM MgCl2, pH 7.4) containing the aforementioned protease inhibitors and centrifuged again. The final pellet was resuspended in Buffer A containing protease inhibitors and stored at -80°C until used. Protein content was determined by the Bio-Rad dye-binding protein assay.
[^125I]ET-3 binding to membranes:
Binding assays were performed in 96-well microtiter plates pretreated with 0.1% BSA. Membranes prepared from cells were diluted ∼100 fold in Buffer B (20 mM Tris, 100 mM NaCl, 10 mM MgCl2, pH 7.4, with 0.2% BSA, 0.1 mM PMSF, 5 µg/mL Pepstatin A, 0.025% bacitracin, and 3 mM EDTA) to a final concentration of 0.2 mg/mL of protein. In competition studies, membranes (0.02 mg) were incubated with 0.1 nM of [^125I]ET-3 in Buffer B (final volume: 0.2 mL) in the presence of increasing concentrations of unlabeled ET-3 or a test compound for 4 hours at 25 °C. After incubation, unbound ligands were separated from bound ligands by a vacuum filtration method using glass-fiber filter strips in PHD cell harvesters (Cambridge Technology, Inc., MA), followed by washing the filter strips with saline (1 mL) for three times. Nonspecific binding was determined in the presence of 1 µM ET-1. The per cent inhibition at a concentration of 1 µM is shown. […]

## COc1ccc([C@H]2[C@H](C(=O)O)[C@@H](c3ccc4c(c3)OCO4)CN2CC(=O)Nc2c(C)cc(C)cc2C)cc1 (racemic) [Example 1, trans,trans-2-(4-Methoxyphenyl)-4-(1,3-benzodioxol-5-yl)-1-((2,4,6-trimethyl)phenylaminocarbonylmethyl)-pyrrolidine-3-carboxylic acid]
  inhibition at 1 µM: 96.4%

## COc1ccc([C@H]2[C@H](C(=O)O)[C@@H](c3ccc4c(c3)OCO4)CN2CC(=O)Nc2c(C)cc(C)cc2C)cc1F (racemic) [Example 2, trans,trans-2-(3-Fluoro-4-methoxyphenyl)-4-(1,3-benzodioxol-5-yl)-1-((2,4,6-trimethyl)phenylaminocarbonylmethyl)-pyrrolidine-3-carboxylic acid]
  inhibition at 1 µM: 91.5%

## CCCOc1ccc([C@H]2[C@H](C(=O)O)[C@@H](c3ccc4c(c3)OCO4)CN2CC(=O)Nc2c(C)cc(C)cc2C)cc1 (racemic) [Example 3, trans,trans-2-(4-Propoxyphenyl)-4-(1,3-benzodioxol-5-yl)-1-((2,4,6-trimethyl)phenylaminocarbonylmethyl)-pyrrolidine-3-carboxylic acid]
  inhibition at 1 µM: 82.1%

## CCc1cccc(CC)c1NC(=O)CN1C[C@H](c2ccc3c(c2)OCO3)[C@@H](C(=O)O)[C@@H]1c1ccc(OC)cc1 (racemic) [Example 4, trans,trans-2-(4-Methoxyphenyl)-4-(1,3-benzodioxol-5-yl)-1-((2,6-diethyl)phenylaminocarbonylmethyl)-pyrrolidine-3-carboxylic acid]
  inhibition at 1 µM: 94%

## CCCOc1ccc([C@H]2[C@H](C(=O)O)[C@@H](c3ccc4c(c3)OCO4)CN2CC(=O)Nc2c(CC)cccc2CC)cc1 (racemic) [Example 5, trans,trans-2-(4-Propoxyphenyl)-4-(1,3-benzodioxol-5-yl)-1-((2,6-diethyl)phenylaminocarbonylmethyl)-pyrrolidine-3-carboxylic acid]
  inhibition at 1 µM: 96.5%

## CCc1cccc(CC)c1NC(=O)CN1C[C@H](c2ccc3c(c2)OCO3)[C@@H](C(=O)O)[C@@H]1c1ccc(OC)c(F)c1 (racemic) [Example 6, trans,trans-2-(3-Fluoro-4-methoxyphenyl)-4-(1,3-benzodioxol-5-yl)-1-((2,6-diethyl)phenylaminocarbonylmethyl)-pyrrolidine-3-carboxylic acid]
  inhibition at 1 µM: 92.9%

## CCOc1ccc([C@H]2[C@H](C(=O)O)[C@@H](c3ccc4c(c3)OCO4)CN2CC(=O)Nc2c(CC)cccc2CC)cc1F (racemic) [Example 7, trans,trans-2-(3-Fluoro-4-ethoxyphenyl)-4-(1,3-benzodioxol-5-yl)-1-((2,6-diethyl)phenylaminocarbonylmethyl)-pyrrolidine-3-carboxylic acid]
  inhibition at 1 µM: 94.5%

## CCc1cccc(CC)c1NC(=O)CN1C[C@H](c2cc(OC)c3c(c2)OCO3)[C@@H](C(=O)O)[C@@H]1c1ccc(OC)c(F)c1 (racemic) [Example 8, trans,trans-2-(3-Fluoro-4-methoxyphenyl)-4-(7-methoxy-1,3-benzodioxol-5-yl)-1-((2,6-diethyl)phenylaminocarbonylmethyl)-pyrrolidine-3-carboxylic acid]
  inhibition at 1 µM: 93.6%

## CCCOc1ccc([C@H]2[C@H](C(=O)O)[C@@H](c3ccc4c(c3)OCO4)CN2CC(=O)Nc2c(CC)cccc2CC)cc1OC (racemic) [Example 9, trans,trans-2-(3-methoxy-4-propoxyphenyl)-4-(1,3-benzodioxol-5-yl)-1-((2,6-diethyl)phenylaminocarbonylmethyl)-pyrrolidine-3-carboxylic acid]
  inhibition at 1 µM: 94.8%

## CCOc1ccc([C@H]2[C@H](C(=O)O)[C@@H](c3ccc4c(c3)OCO4)CN2CC(=O)Nc2c(CC)cccc2CC)cc1 (racemic) [Example 10, trans,trans-2-(4-ethoxyphenyl)-4-(1,3-benzodioxol-5-yl)-1-((2,6-diethyl)phenylaminocarbonylmethyl)-pyrrolidine-3-carboxylic acid]
  inhibition at 1 µM: 95.2%

## COc1ccc([C@H]2[C@H](C(=O)O)[C@@H](c3ccc4c(c3)OCO4)CN2CC(=O)Nc2c(C)cccc2C)cc1 (racemic) [Example 11, trans,trans-2-(4-methoxyphenyl)-4-(1,3-benzodioxol-5-yl)-1-((2,6-dimethyl)phenylaminocarbonylmethyl)-pyrrolidine-3-carboxylic acid]
  inhibition at 1 µM: 96%

## CCCOc1ccc([C@H]2[C@H](C(=O)O)[C@@H](c3cc(OC)c4c(c3)OCO4)CN2CC(=O)Nc2c(CC)cccc2CC)cc1 (racemic) [Example 12, trans,trans-2-(4-propoxyphenyl)-4-(7-methoxy-1,3-benzodioxol-5-yl)-1-((2,6-diethyl)phenylaminocarbonylmethyl)-pyrrolidine-3-carboxylic acid]
  inhibition at 1 µM: 96.7%

## CCCOc1ccc([C@H]2[C@H](C(=O)O)[C@@H](c3cc(OC)c4c(c3)OCO4)CN2CC(=O)Nc2c(CC)cccc2CC)cc1OC [Example 13, trans,trans-2-(3-methoxy-4-propoxyphenyl)-4-(7-methoxy-1,3-benzodioxol-5-yl)-1-((2,6-diethyl)phenylaminocarbonylmethyl)-pyrrolidine-3-carboxylic acid]
  inhibition at 1 µM: 91.3%

## COc1ccc([C@H]2[C@H](C(=O)O)[C@@H](c3ccc4c(c3)OCO4)CN2CC(=O)Nc2c(Br)cccc2Br)cc1 [Example 14, trans,trans-2-(4-methoxyphenyl)-4-(1,3-benzodioxol-5-yl)-1-((2,6-dibromo)phenylaminocarbonylmethyl)-pyrrolidine-3-carboxylic acid]
  inhibition at 1 µM: 96.6%

## CCc1cccc(CC)c1NC(=O)CN1C[C@H](c2ccc3c(c2)OCO3)[C@@H](C(=O)O)[C@@H]1c1ccc(OC)cc1 [Example 15, [2R,3R,4S]2-(4-Methoxyphenyl)-4-(1,3-benzodioxol-5-yl)-1-(N-(2,6-diethyl)phenylaminocarbonylmethyl)-pyrrolidine-3-carboxylic acid, hydrochloride salt]
  inhibition at 1 µM: 93.4%

## COc1ccc([C@H]2[C@H](C(=O)O)[C@@H](c3ccc4c(c3)OCO4)CN2CC(=O)Nc2c(OC)cccc2OC)cc1 [Example 16, trans,trans-2-(4-methoxyphenyl)-4-(1,3-benzodioxol-5-yl)-1-((2,6-dimethoxy)phenylaminocarbonylmethyl)-pyrrolidine-3-carboxylic acid]
  inhibition at 1 µM: 92.3%

## CCc1cc(Br)cc(CC)c1NC(=O)CN1C[C@H](c2ccc3c(c2)OCO3)[C@@H](C(=O)O)[C@@H]1c1ccc(OC)cc1 [Example 17, trans,trans-2-(4-methoxyphenyl)-4-(1,3-benzodioxol-5-yl)-1-((4-bromo-2,6-diethyl)phenylaminocarbonylmethyl)-pyrrolidine-3-carboxylic acid]
  inhibition at 1 µM: 97.1%

## CCc1cccc(C)c1NC(=O)CN1C[C@H](c2ccc3c(c2)OCO3)[C@@H](C(=O)O)[C@@H]1c1ccc(OC)cc1 [Example 18, trans,trans-2-(4-methoxyphenyl)-4-(1,3-benzodioxol-5-yl)-1-((2-ethyl-6-methyl)phenylaminocarbonylmethyl)-pyrrolidine-3-carboxylic acid]
  inhibition at 1 µM: 94.9%

## CCc1cc(CC)c(NC(=O)CN2C[C@H](c3ccc4c(c3)OCO4)[C@@H](C(=O)O)[C@@H]2c2ccc(OC)cc2)c(CC)c1 [Example 19, trans,trans-2-(4-methoxyphenyl)-4-(1,3-benzodioxol-5-yl)-1-((2,4,6-triethyl)phenylaminocarbonylmethyl)-pyrrolidine-3-carboxylic acid]
  inhibition at 1 µM: 94.9%

## CCCOc1ccc(C2C(C(=O)O)C(c3ccc4c(c3)OCO4)CN2CC(=O)Nc2c(CC)cccc2CC)cc1 [Example 20, [2R,3R,4S]2-(4-Propoxyphenyl)-4-(1,3-benzodioxol-5-yl)-1-(N-((2,6-diethyl)phenylaminocarbonylmethyl)-pyrrolidine-3-carboxylic acid]
  inhibition at 1 µM: 95.5%

## COc1ccc([C@H]2[C@H](C(=O)O)[C@@H](c3ccc4c(c3)OCO4)CN2CC(=O)Nc2c(C(C)C)cccc2C(C)C)cc1 [Example 21, trans,trans-2-(4-methoxyphenyl)-4-(1,3-benzodioxol-5-yl)-1-((2,6-diisopropyl)phenylaminocarbonylmethyl)-pyrrolidine-3-carboxylic acid]
  inhibition at 1 µM: 97.1%
